Values quoted from earlier work as cited in patent US7026316B2, “Dipeptidyl peptidase inhibitors for the treatment or prevention of diabetes” (Merck & Co., Inc., priority 2001, dated 2006).

Legend:
[1] = system: rats; settings: survival doubled from day 7 to day 14
[2] = target: DP-IV (Homo sapiens, UniProt P27487)
[3] = system: mouse; settings: cyclophosphamide-induced neutropenia

Chain of DP-IV (P27487 whole entry): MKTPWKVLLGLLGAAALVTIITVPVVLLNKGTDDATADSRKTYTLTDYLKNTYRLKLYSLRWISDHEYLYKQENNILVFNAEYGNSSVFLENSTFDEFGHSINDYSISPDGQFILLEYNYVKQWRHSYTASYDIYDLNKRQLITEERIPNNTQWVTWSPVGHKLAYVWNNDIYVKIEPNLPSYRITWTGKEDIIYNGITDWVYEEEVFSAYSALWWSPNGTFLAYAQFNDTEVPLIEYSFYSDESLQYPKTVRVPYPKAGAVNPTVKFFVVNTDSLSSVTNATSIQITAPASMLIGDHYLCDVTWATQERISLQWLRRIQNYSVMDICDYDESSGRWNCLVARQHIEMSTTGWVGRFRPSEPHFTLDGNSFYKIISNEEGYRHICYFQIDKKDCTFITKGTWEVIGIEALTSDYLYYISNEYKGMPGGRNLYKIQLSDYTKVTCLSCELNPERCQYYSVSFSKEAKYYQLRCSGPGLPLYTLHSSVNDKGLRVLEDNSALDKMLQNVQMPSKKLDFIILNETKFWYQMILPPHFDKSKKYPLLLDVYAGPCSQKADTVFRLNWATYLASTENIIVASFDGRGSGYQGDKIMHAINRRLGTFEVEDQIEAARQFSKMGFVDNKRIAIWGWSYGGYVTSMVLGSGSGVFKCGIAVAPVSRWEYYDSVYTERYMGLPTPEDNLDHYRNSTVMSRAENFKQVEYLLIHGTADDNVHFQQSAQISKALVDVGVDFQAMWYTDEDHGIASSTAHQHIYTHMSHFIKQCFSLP

SMILES: CC(C)N1CCC(c2ccccc2)(c2ccccc2)CC1 [Prodipine, Pro-Pro-diphenyl-phosphonate]
- cardiac allograft survival [1]: 14 day

SMILES: CC[C@H](C)[C@H](N)C(=O)N1CCC[C@H]1C(=O)N[C@H](C(=O)O)[C@@H](C)CC [diprotin A]
- degradation of GRH in plasma to GRH[3-44] [2]: prevented

SMILES: CC(C)[C@H](N)C(=O)N1CCC[C@H]1B(O)O [Val-Boro-Pro]
- hematopoiesis [3]: stimulated hematopoiesis
